Results taken from PMC12446476 (Nature Communications, 2025).
Values after ≈ are worked out from the molar mass of the structure shown. Values joined by “and” are separate entries in the source; they are usually repeats but may differ in a detail not shown here. Identical values can stand only once. Like-named read-outs stand apart in the source and are kept apart here.

What was measured:
[1] = biological target: recombinant NgFabI protein (Neisseria gonorrhoeae, UniProt A0ACH0F547); experiment: biochemical
recombinant NgFabI protein, sequence (A0ACH0F547 entry or part of it): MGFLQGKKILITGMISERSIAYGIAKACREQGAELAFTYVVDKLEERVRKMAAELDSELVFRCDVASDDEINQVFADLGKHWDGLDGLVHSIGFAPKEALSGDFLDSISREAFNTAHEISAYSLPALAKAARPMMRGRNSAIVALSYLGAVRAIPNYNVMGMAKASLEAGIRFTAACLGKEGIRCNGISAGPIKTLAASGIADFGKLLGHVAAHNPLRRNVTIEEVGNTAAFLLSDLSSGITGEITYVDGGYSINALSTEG
Experimental: FabI activity was monitored by measuring NADH consumption. […] To initiate reactions, 50 µM NADH was added, and absorbance was monitored at 340 nm every 12 s for a total of 40 min using a Spectramax Plus 384 plate reader (Molecular Devices) at a controlled temperature of 30 °C. Data were analysed using the XLfit Microsoft Excel plugin (version 5.5). IC50 values were determined using a logistic sigmoid curve-fitting of the inhibitor dose response curves.

[2] = system: intracellular N. gonorrhoeae; experiment: Intracellular killing in HeLa229 cells; format: cell-based, Neisseria gonorrhoeae; conditions: for reduction of intracellular bacteria: within 24 h; for Colony forming units (CFU) of N. gonorrhoeae internalised in HeLa229 cells, colony count: dilution 0, replicates 1-3, counts 1-2
Experimental: Intracellular killing was assessed within HeLa229 cells (European Collection of Authenticated Cell Cultures, London, UK) that were seeded at ~3 × 10^5 cells/mL and grown to 70–80% confluence in RPMI-glutamine media supplemented with 10% (v/v) heat-inactivated fetal bovine serum (FBS, Gibco, MA, USA). Cells were incubated at 37 °C with 5% CO2 for 24 h, then washed with serum-free RPMI-1640 prior to infection. N. gonorrhoeae was scraped from agar plates and resuspended in Dulbecco’s Phosphate Buffered Saline (DPBS, Sigma-Aldrich), pelleted, then resuspended in RPMI with 2% FBS. Bacterial suspensions were used to infect HeLa229 cells at a multiplicity of infection of 100:1. Plates were briefly centrifuged (500 × g for 5 min), then incubated for one hour. This incubation and all subsequent incubations were performed at 37 °C with 5% CO2. Non-adherent cells were removed by washing with serum-free RPMI, and the remaining extracellular bacteria were killed via resuspension in RPMI-glutamine supplemented with 2% FBS and 200 μg/mL gentamycin and incubation for one hour. […] Azithromycin-treated samples were included for control/comparison. […] Samples were diluted and plated onto chocolate II agar for viable bacteria quantification. Intracellular killing assays were performed at Microbiologics, Kalamazoo, MI, USA, using a method adapted from previous studies[68],[69].

[3] = system: N. gonorrhoeae; experiment: MIC determination, agar dilution (CLSI); format: cell-based, Neisseria gonorrhoeae; conditions: for MIC: Neisseria gonorrhoeae
Summary of the method: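 For N. gonorrhoeae, WHO 2024 reference strains served as quality control, only whole doubling-dilution MICs were reported, and isolates were classified by EUCAST v14.0 breakpoints or ECOFF. Time-kill assays followed CLSI in Columbia broth with 1% IsoVitaleX, and viable counts came from plating serial dilutions on GC agar with IsoVitaleX.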

For `Cc1c(CN(C)C(=O)/C=C/c2cnc3c(c2)N[C@H](C)[C@H](O)C(=O)N3)oc2ccccc12` [Debio 1453], the IC50 [1] was 0.6 nM, the “reduction of intracellular bacteria” value ([2]; ATCC 49226 in HeLa229 cells) was ≥ 3.1 log10CFU/mL and the “reduction of intracellular bacteria” value ([2]; WHO X in HeLa229 cells) was ≥ 2.8 log10CFU/mL. For the same molecule, the “Colony forming units (CFU) of N. gonorrhoeae internalised in HeLa229 cells, colony count” value (from here on “Colony forming units (CFU)”) ([2]; isolate ATCC 49226, 3 hr, 2X MIC) was 39 CFU and 23 CFU and 37 CFU and 34 CFU and 36 CFU and 40 CFU, the “Colony forming units (CFU)” value ([2]; isolate ATCC 49226, 3 hr, 4X MIC) was 53 CFU and 63 CFU and 32 CFU and 35 CFU and 51 CFU and 39 CFU and the “Colony forming units (CFU)” value ([2]; isolate ATCC 49226, 3 hr, 8X MIC) was 26 CFU and 40 CFU and 33 CFU (2×) and 29 CFU and 38 CFU. For the same molecule, the “Colony forming units (CFU)” value ([2]; isolate ATCC 49226, 6 hr, 2X MIC) was 5 CFU, the “Colony forming units (CFU)” value ([2]; isolate ATCC 49226, 6 hr, 4X MIC) was 5 CFU (2×) and 6 CFU and the “Colony forming units (CFU)” value ([2]; isolate ATCC 49226, 6 hr, 8X MIC) was 2 CFU and 6 CFU (2×). For the same molecule, the “Colony forming units (CFU)” value ([2]; isolate ATCC 49226, 10 hr, 2X MIC) was 0 CFU, the “Colony forming units (CFU)” value ([2]; isolate ATCC 49226, 10 hr, 4X MIC) was 1 CFU (3×) and 0 CFU (3×) and the “Colony forming units (CFU)” value ([2]; isolate ATCC 49226, 10 hr, 8X MIC) was 0 CFU. The “Colony forming units (CFU)” value ([2]; isolate ATCC 49226, 24 hr, 2X MIC) was 0 CFU, the “Colony forming units (CFU)” value ([2]; isolate ATCC 49226, 24 hr, 4X MIC) was 0 CFU and the “Colony forming units (CFU)” value ([2]; isolate ATCC 49226, 24 hr, 8X MIC) was 0 CFU. The “Colony forming units (CFU)” value ([2]; isolate NCTC 13820, 3 hr, 2X MIC) was 27 CFU and 24 CFU (2×), the “Colony forming units (CFU)” value ([2]; isolate NCTC 13820, 3 hr, 4X MIC) was 25 CFU and 30 CFU and 34 CFU and the “Colony forming units (CFU)” value ([2]; isolate NCTC 13820, 3 hr, 8X MIC) was 29 CFU (2×) and 25 CFU and 31 CFU. The “Colony forming units (CFU)” value ([2]; isolate NCTC 13820, 6 hr, 2X MIC) was 6 CFU and 12 CFU, the “Colony forming units (CFU)” value ([2]; isolate NCTC 13820, 6 hr, 8X MIC) was 5 CFU (2×) and 0 CFU and 11 CFU and the “Colony forming units (CFU)” value ([2]; isolate NCTC 13820, 10 hr, 2X MIC) was 1 CFU (2×) and 2 CFU and 0 CFU. The “Colony forming units (CFU)” value ([2]; isolate NCTC 13820, 10 hr, 4X MIC) was 1 CFU (2×) and 2 CFU (3×) and 0 CFU, the “Colony forming units (CFU)” value ([2]; isolate NCTC 13820, 10 hr, 8X MIC) was 2 CFU and 1 CFU (2×) and 0 CFU (2×) and the “Colony forming units (CFU)” value ([2]; isolate NCTC 13820, 24 hr, 2X MIC) was 0 CFU. The “Colony forming units (CFU)” value ([2]; isolate NCTC 13820, 24 hr, 4X MIC) was 0 CFU, the MIC range ([3]; 100 contemporary clinical N. gonorrhoeae isolates) was 0.008 to 0.125 µg/mL and the MIC range ([3]; 2024 WHO N. gonorrhoeae reference strains) was 0.03 to 0.125 µg/mL. For the same molecule, the “increase in MIC” value ([3]; 6804 clones with FabI L257F vs parent) was 4 fold, the MIC ([3]; AR Bank0179-15 (AZM-R), mode of multiple measures, read-out: MIC) was 0.03 µg/mL (≈ 0.0713 µM) and the MIC ([3]; AR Bank0181-17 (AZM-R), mode of multiple measures, read-out: MIC) was 0.125 µg/mL (≈ 0.297 µM). It also gave an MIC ([3]; ATCC700825, read-out: MIC relevant for mutant selection assay, ATCC 700825) of 0.016 µg/mL (≈ 0.0381 µM), an MIC ([3]; WHO F, agar dilution, read-out: MIC) of 0.03 µg/mL (≈ 0.0713 µM) and an MIC ([3]; WHO H, agar dilution, read-out: MIC) of 0.06 µg/mL (≈ 0.143 µM). For the same molecule, the MIC ([3]; WHO K, agar dilution, read-out: MIC) was 0.06 µg/mL (≈ 0.143 µM), the MIC ([3]; WHO L, agar dilution, read-out: MIC) was 0.03 µg/mL (≈ 0.0713 µM) and the MIC ([3]; WHO M, agar dilution, read-out: MIC) was 0.06 µg/mL (≈ 0.143 µM). For the same molecule, the MIC ([3]; WHO O, agar dilution, read-out: MIC) was 0.06 µg/mL (≈ 0.143 µM), the MIC ([3]; WHO P, agar dilution, read-out: MIC) was 0.125 µg/mL (≈ 0.297 µM) and the MIC ([3]; WHO Q, agar dilution, read-out: MIC) was 0.06 µg/mL (≈ 0.143 µM). The MIC ([3]; WHO R, agar dilution, read-out: MIC) was 0.06 µg/mL (≈ 0.143 µM), the MIC ([3]; WHO S2, agar dilution, read-out: MIC) was 0.06 µg/mL (≈ 0.143 µM) and the MIC ([3]; WHO U, agar dilution, read-out: MIC) was 0.125 µg/mL (≈ 0.297 µM). For the same molecule, the MIC ([3]; WHO V, agar dilution, read-out: MIC) was 0.06 µg/mL (≈ 0.143 µM) and the MIC ([3]; WHO X-07 (CIP-R, CRO-R), mode of multiple measures, read-out: MIC) was 0.125 µg/mL (≈ 0.297 µM).
